One may read the AUC(0-inf) as total exposure, with the tail of the curve extrapolated. Read a low AUC(0-inf) as less exposure. Broadly, the half-life is how long it takes for the measured level to halve. Broadly, the MRT inf is the average time that molecules of a dose stay in the body. As a reminder, the clearance is the rate of elimination divided by the concentration. The pIC50 is the negative decadic logarithm of the IC50, by convention in mol/L. The term Vdss denotes a proportionality between amount in the body and measured concentration, not a real space. A high value points to wide distribution into tissue. What is called MRT is a mean duration of stay, worked out from the concentration-time curve.

pIC50: −log10 of the molar value. Active and inactive are the calls of the source. No cut-off for these calls is given here.

These results are taken from ChEMBL document CHEMBL6109147, “Discovery of Potent STING Inhibitors Bearing a Difluorobenzodioxol Structural Motif as Potent Anti-Inflammatory Agents” (J Med Chem, 2025).

Series [1] concerns Mus musculus. The series can be described thus: Anti-inflammatory activity against MSA-2 induced C57BL/6 mouse inflammation model assessed as inhibition of MSA-2 induced TNF-alpha mRNA expression in kidney at 10 mg/kg, ip pre-treated for 1 hr followed by stimulated with MSA-2 for 4 hrs by real-time PCR analysis. The class given is functional, organism-based. To be noted: time 5.0 hrs.

Series [2] can be described thus: AUC (0 to infinity) in Sprague-Dawley rat at 1 mg/kg, iv. The series is classed as ADME, organism-based. To be noted: in vivo.
The nature of series [3]: Volume of distribution at steady state in Sprague-Dawley rat at 1 mg/kg, iv. The class given is ADME, organism-based. To be noted: in vivo.
Series [4] has as its system Mus musculus. Briefly: Anti-inflammatory activity against MSA-2 induced C57BL/6 mouse inflammation model assessed as inhibition of MSA-2 induced Isg15 mRNA expression in kidney at 10 mg/kg, ip pre-treated for 1 hr followed by stimulated with MSA-2 for 4 hrs by real-time PCR analysis. The class given is functional, organism-based. To be noted: time 5.0 hrs. In general terms: Quantitative PCR measures a nucleic acid by following its amplification.

Series [5] can be described thus: Metabolic stability in human liver microsomes assessed as microsomal intrinsic clearance. The series is classed as ADME, Microsome. The conditions noted are these: read-out: CLH. In general terms: Microsomes from liver hold many membrane-bound enzymes, among them those of drug oxidation.
The subject of series [6] is Mus musculus. The series can be described thus: Anti-inflammatory activity against MSA-2 induced C57BL/6 mouse inflammation model assessed as inhibition of MSA-2 induced IL-6 level in kidney at 10 mg/kg, ip pre-treated for 1 hr followed by stimulated with MSA-2 for 4 hrs by ELISA. The series is classed as functional, organism-based. The conditions noted are these: time 5.0 hrs.

A short description of series [7]: Metabolic stability in human liver microsomes assessed as half life. The series is classed as ADME, Microsome.
Series [8] is described as follows: Metabolic stability in rat liver microsomes assessed as microsomal intrinsic clearance. The conditions noted are these: read-out: CLH. The series is classed as ADME, Microsome.
Series [9] is described as follows: Metabolic stability in rat liver microsomes assessed as liver intrinsic clearance. The class given is ADME, Microsome.
The test system of series [10] is Mus musculus. The series can be described thus: Anti-inflammatory activity against MSA-2 induced C57BL/6 mouse inflammation model assessed as inhibition of MSA-2 induced IL-6 mRNA expression in kidney at 10 mg/kg, ip pre-treated for 1 hr followed by stimulated with MSA-2 for 4 hrs by real-time PCR analysis. The conditions noted are these: time 5.0 hrs. The series is classed as functional, organism-based.

The subject of series [11] is Mus musculus. Briefly: Anti-inflammatory activity against MSA-2 induced C57BL/6 mouse inflammation model assessed as inhibition of MSA-2 induced IP-10 level in plasma at 10 mg/kg, ip pre-treated for 1 hr followed by stimulated with MSA-2 for 4 hrs by ELISA. To be noted: time 5.0 hrs. The class given is functional, organism-based.
Series [12] deals with Mus musculus. The series can be described thus: Anti-inflammatory activity against MSA-2 induced C57BL/6 mouse inflammation model assessed as inhibition of MSA-2 induced Isg56 RNA expression in kidney at 10 mg/kg, ip pre-treated for 1 hr followed by stimulated with MSA-2 for 4 hrs by real-time PCR analysis. To be noted: time 5.0 hrs. The class given is functional, organism-based.

A short description of series [13]: Metabolic stability in rat liver microsomes assessed as half life. The class given is ADME, Microsome.
Series [14] can be described thus: MRT (0 to infinity) in Sprague-Dawley rat at 1 mg/kg, iv. The conditions noted are these: in vivo. The class given is ADME, organism-based.
The nature of series [15]: Half life in Sprague-Dawley rat at 1 mg/kg, iv. To be noted: in vivo. The class given is ADME, organism-based.
Series [16] in a line: Metabolic stability in mouse liver microsomes assessed as liver intrinsic clearance. The series is classed as ADME, Microsome.
For series [17], the system named is Mus musculus. Briefly: Anti-inflammatory activity against MSA-2 induced C57BL/6 mouse inflammation model assessed as inhibition of MSA-2 induced Cxcl-10 mRNA expression in kidney at 10 mg/kg, ip pre-treated for 1 hr followed by stimulated with MSA-2 for 4 hrs by real-time PCR analysis. The class given is functional, organism-based. The conditions noted are these: time 5.0 hrs.

For series [18], the system named is Mus musculus. The series can be described thus: Anti-inflammatory activity against MSA-2 induced C57BL/6 mouse inflammation model assessed as inhibition of MSA-2 induced IL-6 level in plasma at 10 mg/kg, ip pre-treated for 1 hr followed by stimulated with MSA-2 for 4 hrs by ELISA. The series is classed as functional, organism-based. To be noted: time 5.0 hrs. (In general: In an ELISA, binding on a coated surface is turned into a signal by an enzyme label.)

The subject of series [19] is Mus musculus. Briefly: Anti-inflammatory activity against MSA-2 induced C57BL/6 mouse inflammation model assessed as inhibition of MSA-2 induced IP-10 level in kidney at 10 mg/kg, ip pre-treated for 1 hr followed by stimulated with MSA-2 for 4 hrs by ELISA. The series is classed as functional, organism-based. To be noted: time 5.0 hrs.
Series [20] is described as follows: Metabolic stability in mouse liver microsomes assessed as half life. The class given is ADME, Microsome.
The nature of series [21]: Metabolic stability in human liver microsomes assessed as liver intrinsic clearance. The class given is ADME, Microsome.
Series [22] is described as follows: Metabolic stability in mouse liver microsomes assessed as microsomal intrinsic clearance. The class given is ADME, Microsome. The conditions noted are these: read-out: CLH.
The next series concerns HEK293. The series can be described thus: Protection of Cisplatin induced apoptosis in human HEK293 cells assessed as apoptotic cells at 10 uM measured after 72 hrs by flow cytometry. The class given is functional, cell-based.
The nature of series [23]: Clearance in Sprague-Dawley rat at 1 mg/kg, iv. The conditions noted are these: in vivo. The class given is ADME, organism-based.
For series [24], the target named is T1, Stimulator of interferon genes protein (Mus musculus, UniProt Q3TBT3).
T1 sequence (Q3TBT3 whole entry): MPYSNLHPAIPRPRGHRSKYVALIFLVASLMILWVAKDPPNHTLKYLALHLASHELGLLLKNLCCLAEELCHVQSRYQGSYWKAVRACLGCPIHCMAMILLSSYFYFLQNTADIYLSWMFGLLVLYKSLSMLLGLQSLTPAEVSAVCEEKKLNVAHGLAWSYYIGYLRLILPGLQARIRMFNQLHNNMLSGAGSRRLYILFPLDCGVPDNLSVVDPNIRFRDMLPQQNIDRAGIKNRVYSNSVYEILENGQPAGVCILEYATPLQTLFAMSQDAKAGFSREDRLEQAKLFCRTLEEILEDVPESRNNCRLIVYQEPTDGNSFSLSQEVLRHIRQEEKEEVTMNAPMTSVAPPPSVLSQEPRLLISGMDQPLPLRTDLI
Briefly: Inhibition of mouse STING in mouse RAW cells assessed as secreted luciferase reporter of interferon stimulated gene (ISG) measured after 24 hrs incubation by QUANTI-Luc detection assay. The class given is cell-based.

Series [25] addresses Stimulator of interferon genes protein (Homo sapiens) (UniProt Q86WV6). Briefly: Binding affinity to Flag-tagged human STING expressed in HEK293T cells assessed as labelling measured after 1 hr by TAMRA-N3 fluorescent assay. The class given is cell-based.
The target is the same in series [26]. Briefly: Binding affinity to Flag-tagged human STING expressed in HEK293T cells assessed as labelling pretreated for 15 mins with (E)-1-(5-(3-Cyanoprop-1-en-1-yl)-1H-indol-3-yl)-3-(2,2-difluorobenzo[d][1,3]dioxol-5-yl)urea followed by treated at 1 uM for 1 hr by TAMRA-N3 fluorescent assay. The class given is cell-based. The conditions noted are these: time 75.0 min.

The nature of series [27]: Inhibition of intracellular DNA induced Ifnb mRNA expression in human IMR-90 cells measured after 6 hrs by PCR assay. The conditions noted are these: IMR-90, 6 h.

Chain of Stimulator of interferon genes protein (Homo sapiens) (Q86WV6 whole entry): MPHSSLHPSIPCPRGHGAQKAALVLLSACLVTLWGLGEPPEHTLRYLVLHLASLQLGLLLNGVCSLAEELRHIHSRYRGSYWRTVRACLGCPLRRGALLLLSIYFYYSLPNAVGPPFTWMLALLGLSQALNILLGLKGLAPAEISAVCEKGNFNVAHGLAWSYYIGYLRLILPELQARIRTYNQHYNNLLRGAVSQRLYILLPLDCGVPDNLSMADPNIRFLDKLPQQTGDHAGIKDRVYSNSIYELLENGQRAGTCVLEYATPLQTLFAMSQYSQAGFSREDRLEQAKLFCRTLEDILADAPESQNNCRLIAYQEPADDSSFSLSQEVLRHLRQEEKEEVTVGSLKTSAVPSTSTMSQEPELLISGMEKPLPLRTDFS

Consider `CCc1ccc(NC(=O)Nc2c[nH]c3ccccc23)cc1`, for which the inhibition result with Mus musculus [1], in the series with Mus musculus [4], in the series on Mus musculus [6], in the series on Mus musculus [10], in the series with Mus musculus [11] and in the series on Mus musculus [12] was “Active” each time. The inhibition result in the series on Mus musculus [17], in the series with Mus musculus [18] and in the series on Mus musculus [19] was “Active” throughout. This molecule also registered an AUC(0-inf) in series [2] of 116 ng·h/mL. Moreover, the Vd in [3] (Sprague-Dawley, read-out: Vdss) was found to be 1.94 L/kg. In addition, the values for the microsomal CLint in series [5], in series [8] and in [22] were 115 µL/min/mg, 1360 µL/min/mg and 220 µL/min/mg, respectively. For the same molecule, the half-life in series [7] was 12.1 min; in series [13] it was 1.02 min; in series [15], 9.6 min; in [20] it was 6.29 min. For the same molecule, the CLH in series [9] was 2448 µL/min/mg; in series [16] it was 873 µL/min/mg; in [21], 103 µL/min/mg. This molecule also came in with an MRT inf in series [14] (Sprague-Dawley) of 12 min. In the series with HEK293, the outcome was Active. Moreover, in series [23], the clearance stood at 144 mL/min/kg.

Consider `C#Cc1ccc2[nH]cc(NC(=O)Nc3ccc4c(c3)OC(F)(F)O4)c2c1`, for which, in series [24], the pIC50 is 5.26. Besides, the Activity result in series [25] was “Dose-dependent-effect”. In addition, in series [26], the outcome was inactive.

Turning to `O=C(Nc1cccc2c1OC(F)(F)O2)Nc1c[nH]c2ccccc12`, the pIC50 in series [24] is 6.34.

In the case of `O=C(Nc1ccc2c(c1)OC(F)(F)O2)Nc1c[nH]c2ccc(Cl)cc12`, the pIC50 in series [24] was 6.09.

In the case of `O=C(Nc1ccc2c(c1)OC(F)(F)O2)Nc1c[nH]c2ccccc12`, the pIC50 in series [24] was 6.39.

Turning to `Fc1cnc2[nH]cc(Nc3nc4cc(C5CCCC5)ccc4[nH]3)c2c1`, the AUC(0-inf) in [2] was 43.8 ng·h/mL. Moreover, the Vdss in [3] (iv, 1 mg/kg) turned out to be 14.04 L/kg. Moreover, the pIC50 in series [24] was 7.28. In [14] (iv, 1 mg/kg), this molecule showed an MRT of 16.2 min. The same molecule showed a half-life in series [15] of 25.8 min.

In the case of `CC[C@@H]1NC(=O)[C@@H]2[C@H](Cl)[C@H](Cl)CN2C(=O)[C@H](CC)NC(=O)C[C@H](c2ccccc2)NC(=O)[C@H](CO)NC1=O`, the pIC50 in [27] is 4.97.

Regarding `Fc1ccc2[nH]cc(Nc3nc4cc(C5CCCC5)ccc4[nH]3)c2c1`, the pIC50 in series [24] was 6.68.

For the molecule `Fc1cc2[nH]cc(Nc3nc4cc(C5CCCC5)ccc4[nH]3)c2cc1F`, in series [24], the pIC50 was 6.52.

For `Fc1ccc2[nH]cc(Nc3nc4cc5c(cc4[nH]3)OC(F)(F)O5)c2c1`, the pIC50 in series [24] was 6.64.

As to `O=C(Nc1ccc2c(c1)OC(F)(F)O2)Nc1c[nH]c2ccc(Br)cc12`, the pIC50 in [24] was 6.11.
